Results reported in paper PMC6695897, “Synthesis and In Vitro Screening of Novel Heterocyclic β-D-Gluco- and β-D-Galactoconjugates as Butyrylcholinesterase Inhibitors” (Molecules, 2019).
Where two headings read alike, the source gives them in different places.

Target: T1, horse serum butyrylcholinesterase (BChE) (Equus caballus, UniProt P81908)
T1 construct: native enzyme from horse serum, lyophilised, commercial (Sigma-Aldrich), untagged
Assay: Ellman assay, global fit to mixed inhibition model
Assay type: biochemical
Settings: for Ki: read-out: Ki ± SEM (μM) ^1
Source text: Ellman assay, global fit to mixed inhibition model on horse serum butyrylcholinesterase (BChE)

T1 sequence (P81908 whole entry): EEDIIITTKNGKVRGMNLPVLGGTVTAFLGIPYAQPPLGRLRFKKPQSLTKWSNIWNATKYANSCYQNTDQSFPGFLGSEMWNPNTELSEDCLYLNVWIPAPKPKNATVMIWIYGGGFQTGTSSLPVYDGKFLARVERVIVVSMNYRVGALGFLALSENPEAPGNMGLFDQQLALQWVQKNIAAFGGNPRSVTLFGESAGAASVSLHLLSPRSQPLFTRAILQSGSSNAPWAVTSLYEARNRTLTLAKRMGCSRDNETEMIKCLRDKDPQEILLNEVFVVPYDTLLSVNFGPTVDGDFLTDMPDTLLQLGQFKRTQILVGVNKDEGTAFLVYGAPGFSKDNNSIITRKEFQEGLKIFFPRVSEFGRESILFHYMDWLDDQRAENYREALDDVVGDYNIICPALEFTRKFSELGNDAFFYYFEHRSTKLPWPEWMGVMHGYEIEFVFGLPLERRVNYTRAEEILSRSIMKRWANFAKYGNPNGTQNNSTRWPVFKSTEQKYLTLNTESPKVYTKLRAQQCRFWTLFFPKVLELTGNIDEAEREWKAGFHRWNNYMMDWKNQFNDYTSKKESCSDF

Structure (SMILES)	Ki	further results
OC[C@H]1O[C@@H](OCCn2cnc3ccccc32)[C@H](O)[C@@H](O)[C@@H]1O [compound 5, N1-[2-(β-D-glucopyranozyloxy)ethyl]benzimidazole]	–	Ki (acetylthiocholine 0.04–1 mM, DTNB 0.3 mM, 0.1 M sodium phosphate pH 7.4, 25 °C, mixed): 16 ± 1.6 µM
OC[C@H]1O[C@@H](OCC[n+]2cn(Cc3ccccc3)c3ccccc32)[C@H](O)[C@@H](O)[C@@H]1O [compound 7, N1-benzyl-N3-[2-(β-D-glucopyranozyloxy)ethyl]benzimidazolium bromide]	52 ± 3 µM	–
OC[C@H]1O[C@@H](OCCn2cnc3ccccc32)[C@H](O)[C@@H](O)[C@H]1O [compound 12, N1-[2-(β-D-galactopyranozyloxy)ethyl]benzimidazole]	–	Ki ± SEM (μM) ^1 (acetylthiocholine 0.04–1 mM, DTNB 0.3 mM, 0.1 M sodium phosphate pH 7.4, 25 °C, unreliable (extrapolated beyond tested 15–170 μM)): 782 ± 306 µM
OC[C@H]1O[C@@H](OCC[n+]2cn(Cc3ccccc3)c3ccccc32)[C@H](O)[C@@H](O)[C@H]1O [compound 14, N1-benzyl-N3-[2-(β-D-galactopyranozyloxy)ethyl]benzimidazolium bromide]	26 ± 2.7 µM	–
